Laboratory results from PubChem BioAssay (NCI).
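Grown in 96-well plates, cells were treated for 48 hours with each compound at five concentrations. Insufficient inhibition: endpoint recorded as highest concentration tested. The concentration for full growth arrest is given as TGI.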

Tests used:
Assay in all cases: DTP human tumour cell line panel, 48 h
SF-268 CNS = system: SF-268 CNS
COLO 205 colon = system: COLO 205 colon
SK-OV-3 ovarian = system: SK-OV-3 ovarian
BT-549 breast = system: BT-549 breast
SF-539 CNS = system: SF-539 CNS
MDA-N = system: MDA-N
UO-31 renal = system: UO-31 renal
CCRF-CEM leukemia = system: CCRF-CEM leukemia
HCC-2998 colon = system: HCC-2998 colon
NCI-H226 lung = system: NCI-H226 lung

O=S(=O)(/N=C(\NO)Nc1ccc(Cl)cc1)C1CC=C(c2ccon2)S1 (stereo unspecified)
TGI (SF-268 CNS): > 84.4 µM
TGI (COLO 205 colon): 35 µM
TGI (SK-OV-3 ovarian): > 100 µM
TGI (BT-549 breast): > 63 µM
TGI (SF-539 CNS): 16.9 µM
TGI (MDA-N): > 100 µM
TGI (UO-31 renal): 81.6 µM
TGI (CCRF-CEM leukemia): 72.1 µM
TGI (HCC-2998 colon): 50.4 µM
TGI (NCI-H226 lung): > 79.8 µM

NC(=O)SCC(=O)Nc1ccc2ncccc2c1
TGI (SF-268 CNS): > 100 µM
TGI (COLO 205 colon): > 100 µM
TGI (SK-OV-3 ovarian): > 100 µM
TGI (BT-549 breast): > 100 µM
TGI (SF-539 CNS): > 100 µM
TGI (MDA-N): > 100 µM
TGI (UO-31 renal): > 100 µM
TGI (CCRF-CEM leukemia): > 100 µM
TGI (HCC-2998 colon): > 100 µM
TGI (NCI-H226 lung): > 100 µM

Cc1nc2cccc([N+](=O)[O-])c2n1CCCN(C)C
TGI (SF-268 CNS): > 100 µM
TGI (COLO 205 colon): > 100 µM
TGI (SK-OV-3 ovarian): > 100 µM
TGI (BT-549 breast): > 100 µM
TGI (MDA-N): > 100 µM
TGI (UO-31 renal): > 100 µM
TGI (CCRF-CEM leukemia): > 100 µM
TGI (HCC-2998 colon): > 100 µM
TGI (NCI-H226 lung): > 100 µM

Oc1ccccc1-c1nn2c(CCCCCCCCc3nnc4sc(-c5ccccc5O)nn34)nnc2s1
TGI (SF-268 CNS): > 100 µM
TGI (COLO 205 colon): > 100 µM
TGI (SK-OV-3 ovarian): 83.8 µM
TGI (BT-549 breast): > 100 µM
TGI (SF-539 CNS): > 66.6 µM
TGI (MDA-N): > 100 µM
TGI (UO-31 renal): 48.5 µM
TGI (CCRF-CEM leukemia): 39.3 µM
TGI (HCC-2998 colon): > 100 µM
TGI (NCI-H226 lung): > 100 µM

Cc1cc(C)c2c(=O)cc(-c3ccc4ccccc4c3)[nH]c2n1
TGI (SF-268 CNS): > 100 µM
TGI (COLO 205 colon): 48.1 µM
TGI (SK-OV-3 ovarian): > 100 µM
TGI (BT-549 breast): > 100 µM
TGI (SF-539 CNS): > 93.4 µM
TGI (MDA-N): 17.2 µM
TGI (UO-31 renal): > 100 µM
TGI (CCRF-CEM leukemia): 37.7 µM
TGI (HCC-2998 colon): > 81.8 µM
TGI (NCI-H226 lung): > 100 µM

CCN(CC)CCNC(=O)c1nn(-c2ccc(Cl)cc2)c2c1CCc1cc(OC)ccc1-2
TGI (SF-268 CNS): 22.2 µM
TGI (COLO 205 colon): 6.42 µM
TGI (SK-OV-3 ovarian): 27.5 µM
TGI (BT-549 breast): 32.1 µM
TGI (SF-539 CNS): 13.4 µM
TGI (MDA-N): 10.2 µM
TGI (UO-31 renal): 9.24 µM
TGI (CCRF-CEM leukemia): 20.1 µM
TGI (HCC-2998 colon): 5.52 µM
TGI (NCI-H226 lung): 24.2 µM

COc1ccc(/C=C(/c2ccccc2)c2c(C)cc(C)c(/C(=C\c3ccc(OC)cc3)c3ccccc3)c2N=Nc2cc(C)cc(C)c2)cc1
TGI (SF-268 CNS): > 100 µM
TGI (COLO 205 colon): 24.3 µM
TGI (SK-OV-3 ovarian): > 100 µM
TGI (BT-549 breast): > 100 µM
TGI (SF-539 CNS): > 100 µM
TGI (MDA-N): > 100 µM
TGI (UO-31 renal): > 100 µM
TGI (CCRF-CEM leukemia): > 100 µM
TGI (HCC-2998 colon): > 25.8 µM
TGI (NCI-H226 lung): > 100 µM

O=[N+]([O-])c1ccc(O)c(C=NCC2CCCN3CCCCC23)c1 (stereo unspecified)
TGI (SF-268 CNS): 75.5 µM
TGI (COLO 205 colon): 75.9 µM
TGI (SK-OV-3 ovarian): > 100 µM
TGI (BT-549 breast): > 100 µM
TGI (SF-539 CNS): > 100 µM
TGI (MDA-N): > 100 µM
TGI (UO-31 renal): > 100 µM
TGI (HCC-2998 colon): 74.5 µM
TGI (NCI-H226 lung): 89.9 µM

O=C(CCc1ccc(O)cc1)NCCCNC(=O)CCc1ccc(O)cc1
TGI (SF-268 CNS): > 100 µM
TGI (COLO 205 colon): > 100 µM
TGI (SK-OV-3 ovarian): > 100 µM
TGI (BT-549 breast): > 100 µM
TGI (SF-539 CNS): > 100 µM
TGI (MDA-N): > 100 µM
TGI (UO-31 renal): > 100 µM
TGI (CCRF-CEM leukemia): > 100 µM
TGI (HCC-2998 colon): > 100 µM
TGI (NCI-H226 lung): > 100 µM

CC[C@H]1C=CCC[C@@]2(C[C@@H]3CC[C@@H]4[C@H](C(=O)OCCCCCCCCCCCCCCCC(=O)N(CCCNC(C)=O)C[C@H](CCNC(C)=O)OC(C)=O)[C@]5(CCC[C@@H](C)O5)NC(=[N+]34)N2)O1
TGI (SF-268 CNS): 1.14 µM
TGI (COLO 205 colon): 0.955 µM
TGI (SK-OV-3 ovarian): 2.73 µM
TGI (BT-549 breast): 2.93 µM
TGI (SF-539 CNS): 1.59 µM
TGI (MDA-N): 1.36 µM
TGI (UO-31 renal): 2.46 µM
TGI (CCRF-CEM leukemia): 0.0469 µM
TGI (HCC-2998 colon): 0.221 µM
TGI (NCI-H226 lung): 1.88 µM

CC(=O)OCCOCCN1CCN(c2c(O)c3c(c(O)c2Cl)C(=O)C=CC3=O)CC1
TGI (SF-268 CNS): 3.62 µM
TGI (COLO 205 colon): 0.68 µM
TGI (SK-OV-3 ovarian): 6.06 µM
TGI (BT-549 breast): 2.21 µM
TGI (SF-539 CNS): 3.37 µM
TGI (MDA-N): 1.79 µM
TGI (UO-31 renal): 2.47 µM
TGI (HCC-2998 colon): 4.31 µM
TGI (NCI-H226 lung): 5.89 µM

O=c1c2c3c(sc2nc2n1N=C(c1ccc([N+](=O)[O-])cc1)CS2)CCCC3
TGI (SF-268 CNS): > 100 µM
TGI (COLO 205 colon): > 100 µM
TGI (SK-OV-3 ovarian): > 100 µM
TGI (BT-549 breast): > 100 µM
TGI (SF-539 CNS): > 100 µM
TGI (MDA-N): > 100 µM
TGI (UO-31 renal): > 100 µM
TGI (CCRF-CEM leukemia): > 100 µM
TGI (HCC-2998 colon): > 100 µM
TGI (NCI-H226 lung): > 100 µM

CC(=O)OC1OC(c2ccoc2)C[C@@]12C1CCC3O[C@]3(C)[C@]1(C)C[C@H](OC(C)=O)[C@H]2C (stereo partly specified)
TGI (SF-268 CNS): > 75 µM
TGI (COLO 205 colon): > 75 µM
TGI (SK-OV-3 ovarian): > 75 µM
TGI (BT-549 breast): > 75 µM
TGI (SF-539 CNS): > 75 µM
TGI (MDA-N): > 75 µM
TGI (UO-31 renal): > 75 µM
TGI (CCRF-CEM leukemia): > 75 µM
TGI (HCC-2998 colon): > 75 µM
TGI (NCI-H226 lung): > 75 µM

CN(C)/C=C/c1c2c(nc3ccccc13)C(=O)c1ccccc1C2=O
TGI (SF-268 CNS): 5.26 µM
TGI (COLO 205 colon): 5.5 µM
TGI (SK-OV-3 ovarian): 11.7 µM
TGI (BT-549 breast): 4.87 µM
TGI (SF-539 CNS): 5.4 µM
TGI (MDA-N): 0.957 µM
TGI (UO-31 renal): 7.2 µM
TGI (CCRF-CEM leukemia): 3.36 µM
TGI (HCC-2998 colon): 5.17 µM
TGI (NCI-H226 lung): 5.21 µM

COc1cc(C(=O)OCCn2[nH]c(-c3ccc(Cl)cc3)nc2=S)cc(OC)c1OC
TGI (SF-268 CNS): > 100 µM
TGI (COLO 205 colon): > 100 µM
TGI (SK-OV-3 ovarian): > 100 µM
TGI (BT-549 breast): > 100 µM
TGI (SF-539 CNS): > 100 µM
TGI (MDA-N): > 100 µM
TGI (UO-31 renal): 24.2 µM
TGI (CCRF-CEM leukemia): > 100 µM
TGI (HCC-2998 colon): > 100 µM
TGI (NCI-H226 lung): > 100 µM

COc1cc(Nc2nc3ccccc3nc2C(C)C)cc(OC)c1OC
TGI (SF-268 CNS): > 100 µM
TGI (COLO 205 colon): > 100 µM
TGI (SK-OV-3 ovarian): > 100 µM
TGI (BT-549 breast): > 100 µM
TGI (SF-539 CNS): > 100 µM
TGI (MDA-N): > 100 µM
TGI (UO-31 renal): > 100 µM
TGI (CCRF-CEM leukemia): > 100 µM
TGI (HCC-2998 colon): > 100 µM
TGI (NCI-H226 lung): > 100 µM

CC(=O)OC(=C(C#N)C#N)c1nccnc1C(C)=O
TGI (SF-268 CNS): 7.67 µM
TGI (COLO 205 colon): 11.5 µM
TGI (SK-OV-3 ovarian): > 20 µM
TGI (BT-549 breast): > 20 µM
TGI (SF-539 CNS): > 20 µM
TGI (MDA-N): 17.3 µM
TGI (UO-31 renal): > 20 µM
TGI (CCRF-CEM leukemia): > 20 µM
TGI (HCC-2998 colon): > 20 µM
TGI (NCI-H226 lung): 13.7 µM

COC(=O)c1ccc(C)cc1CC1Cc2c(C)cccc2C1=O (stereo unspecified)
TGI (SF-268 CNS): 44.7 µM
TGI (COLO 205 colon): 17 µM
TGI (SK-OV-3 ovarian): 43.2 µM
TGI (BT-549 breast): 21.1 µM
TGI (SF-539 CNS): 22.3 µM
TGI (MDA-N): 4.82 µM
TGI (UO-31 renal): 66.4 µM
TGI (CCRF-CEM leukemia): 62.2 µM
TGI (HCC-2998 colon): 25.2 µM
TGI (NCI-H226 lung): 37.4 µM

C=CCn1c(-c2ccc(Cl)cc2Cl)csc1=Nc1c(C)n(C)n(-c2ccccc2)c1=O
TGI (SF-268 CNS): 33.4 µM
TGI (COLO 205 colon): 25.6 µM
TGI (SK-OV-3 ovarian): 19.4 µM
TGI (BT-549 breast): 26.4 µM
TGI (SF-539 CNS): 30.4 µM
TGI (MDA-N): 22.4 µM
TGI (UO-31 renal): 24.3 µM
TGI (CCRF-CEM leukemia): 38.1 µM
TGI (HCC-2998 colon): 29.1 µM
TGI (NCI-H226 lung): 33 µM

Cc1nn(-c2ccccc2)c2nc3ccc(Cl)cc3c(-c3ccccc3)c12
TGI (SF-268 CNS): > 100 µM
TGI (COLO 205 colon): > 100 µM
TGI (SK-OV-3 ovarian): > 100 µM
TGI (BT-549 breast): > 100 µM
TGI (MDA-N): > 100 µM
TGI (UO-31 renal): > 100 µM
TGI (CCRF-CEM leukemia): > 100 µM
TGI (HCC-2998 colon): > 100 µM
TGI (NCI-H226 lung): > 100 µM

CCOC(=O)N1N(c2ccccc2)C(=O)C1(c1ccccc1)c1ccccc1
TGI (SF-268 CNS): > 100 µM
TGI (COLO 205 colon): > 100 µM
TGI (SK-OV-3 ovarian): > 100 µM
TGI (BT-549 breast): > 100 µM
TGI (SF-539 CNS): > 100 µM
TGI (MDA-N): > 100 µM
TGI (UO-31 renal): > 100 µM
TGI (CCRF-CEM leukemia): > 100 µM
TGI (HCC-2998 colon): > 100 µM
TGI (NCI-H226 lung): > 100 µM
